Test results from BindingDB's records for doi:10.7270/Q2D798VP (Broad Institute, 2009).

Biological target: T1, Zinc finger protein mex-5 (Caenorhabditis elegans, UniProt Q9XUB2)
T1 sequence (Q9XUB2 whole entry): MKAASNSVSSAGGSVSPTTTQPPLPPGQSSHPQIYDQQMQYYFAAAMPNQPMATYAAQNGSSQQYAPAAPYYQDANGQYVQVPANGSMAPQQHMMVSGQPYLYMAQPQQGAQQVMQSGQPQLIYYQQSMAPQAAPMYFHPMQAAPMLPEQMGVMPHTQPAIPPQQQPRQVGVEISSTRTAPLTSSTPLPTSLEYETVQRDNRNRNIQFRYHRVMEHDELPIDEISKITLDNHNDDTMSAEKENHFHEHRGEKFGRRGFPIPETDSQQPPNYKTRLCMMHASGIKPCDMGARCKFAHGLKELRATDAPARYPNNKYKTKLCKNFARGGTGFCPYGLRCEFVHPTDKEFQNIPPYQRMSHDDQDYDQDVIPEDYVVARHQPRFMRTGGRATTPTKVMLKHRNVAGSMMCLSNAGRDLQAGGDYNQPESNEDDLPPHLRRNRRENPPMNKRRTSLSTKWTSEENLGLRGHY
Assay: potency of MEX-5 RNA-binding blockers – biochemical, C. elegans, fluorescence polarization, dose response (AID 1960)

| Compound | EC50 [µM] |
| --- | --- |
| N#CC1C(=N)OC2=C(C(=O)CC(c3ccco3)C2)C1c1ccc(OCc2c(F)cccc2Cl)cc1 (stereo unspecified) [2-azanyl-4-[4-[(2-chloranyl-6-fluoranyl-phenyl)methoxy]phenyl]-7-(furan-2-yl)-5-oxidanylidene-4,6,7,8-tetrahydrochromene-3-carbonitrile] | > 300 |
| O=C(O)c1cc(-c2ccc(C=C3NC(=O)N(c4ccc(Cl)cc4)C3=O)o2)ccc1Cl [2-chloranyl-5-[5-[(Z)-[1-(4-chlorophenyl)-2,5-bis(oxidanylidene)imidazolidin-4-ylidene]methyl]furan-2-yl]benzoic acid] | 38.6 |
| CC(N=Nc1ccc(Cl)c(C(=O)O)c1)c1ccc[nH]1 (stereo unspecified) [2-chloro-5-[2-[(1Z)-1-pyrrol-2-ylideneethyl]hydrazinyl]benzoic acid] | 150 |
| O=C(O)c1cc(-c2ccc(CN=Nc3ccc([N+](=O)[O-])cn3)o2)ccc1Cl [2-chloro-5-[5-[[(5-nitropyridin-2-yl)hydrazinylidene]methyl]furan-2-yl]benzoic acid] | 6.29 |
| CC1(C)CC(=O)C2=C(C1)OC(=N)C(C#N)C2c1cccc(OC(=O)c2ccco2)c1 (stereo unspecified) [2-furancarboxylic acid [3-(2-amino-3-cyano-7,7-dimethyl-5-oxo-6,8-dihydro-4H-1-benzopyran-4-yl)phenyl] ester] | > 300 |
| O=C1NC(=O)N(CCc2ccccc2)C(=O)C1=CNNC(=O)c1ccccc1O [2-hydroxy-N'-[(E)-[2,4,6-trioxo-1-(2-phenylethyl)-1,3-diazinan-5-ylidene]methyl]benzohydrazide] | 201 |
| COc1[nH]c(N=Cc2ccccc2)c(C#N)c1C#N [2-methoxy-5-[(phenylmethylene)amino]-1H-pyrrole-3,4-dicarbonitrile] | 5.63 |
| O=C1c2cccc3cccc(c23)C(=O)C1[N+](=O)[O-] [2-nitro-3-oxidanyl-phenalen-1-one] | 9.23 |
| C=CCOc1cccc(C2C(C(=O)c3cc4ccccc4o3)C(=O)C(=O)N2c2cc(C)on2)c1 (stereo unspecified) [3-(1-benzofuran-2-carbonyl)-4-hydroxy-1-(5-methyl-1,2-oxazol-3-yl)-2-(3-prop-2-enoxyphenyl)-2H-pyrrol-5-one] | 80.5 |
| Cc1cc(N2C(=O)C(=O)C(C(=O)c3cc4ccccc4o3)C2c2ccc([N+](=O)[O-])cc2)no1 (stereo unspecified) [3-(1-benzofuran-2-carbonyl)-4-hydroxy-1-(5-methyl-1,2-oxazol-3-yl)-2-(4-nitrophenyl)-2H-pyrrol-5-one] | 45.4 |
| C=CCOc1cccc(C2C(C(=O)c3ccc(C)o3)C(=O)C(=O)N2c2nnc(C)s2)c1 (stereo unspecified) [3-(5-methylfuran-2-yl)carbonyl-1-(5-methyl-1,3,4-thiadiazol-2-yl)-4-oxidanyl-2-(3-prop-2-enoxyphenyl)-2H-pyrrol-5-one] | 210 |
| C=CCOc1cccc(C2C(C(=O)c3ccc(C)o3)C(=O)C(=O)N2c2nccs2)c1 (stereo unspecified) [3-(5-methylfuran-2-yl)carbonyl-4-oxidanyl-2-(3-prop-2-enoxyphenyl)-1-(1,3-thiazol-2-yl)-2H-pyrrol-5-one] | 0.851 |
| CCCOc1cccc(C2C(C(=O)c3ccco3)C(=O)C(=O)N2c2nnc(C)s2)c1 (stereo unspecified) [3-(furan-2-carbonyl)-4-hydroxy-1-(5-methyl-1,3,4-thiadiazol-2-yl)-2-(3-propoxyphenyl)-2H-pyrrol-5-one] | 82.7 |
| C=CCOc1ccc(C2C(C(=O)c3ccco3)C(=O)C(=O)N2c2nnc(C)s2)cc1 (stereo unspecified) [3-(furan-2-carbonyl)-4-hydroxy-1-(5-methyl-1,3,4-thiadiazol-2-yl)-2-(4-prop-2-enoxyphenyl)-2H-pyrrol-5-one] | > 300 |
| Cc1nnc(N2C(=O)C(=O)C(C(=O)c3ccco3)C2c2cccc3ccccc23)s1 (stereo unspecified) [3-(furan-2-carbonyl)-4-hydroxy-1-(5-methyl-1,3,4-thiadiazol-2-yl)-2-naphthalen-1-yl-2H-pyrrol-5-one] | > 300 |
| CSc1nnc(N2C(=O)C(=O)C(C(=O)c3ccco3)C2c2ccccc2)s1 (stereo unspecified) [3-(furan-2-carbonyl)-4-hydroxy-1-(5-methylsulfanyl-1,3,4-thiadiazol-2-yl)-2-phenyl-2H-pyrrol-5-one] | 76.6 |
| O=C1C(=O)N(c2ncccn2)C(c2cccs2)C1C(=O)c1ccco1 (stereo unspecified) [3-(furan-2-carbonyl)-4-hydroxy-1-pyrimidin-2-yl-2-thiophen-2-yl-2H-pyrrol-5-one] | 31.5 |
| COc1ccc(C2C(C(=O)c3ccco3)C(=O)C(=O)N2c2nnc(C)s2)cc1 (stereo unspecified) [3-(furan-2-carbonyl)-4-hydroxy-2-(4-methoxyphenyl)-1-(5-methyl-1,3,4-thiadiazol-2-yl)-2H-pyrrol-5-one] | 216 |
| Cc1ccc(C2C(C(=O)c3ccco3)C(=O)C(=O)N2c2nnc(C)s2)cc1 (stereo unspecified) [3-(furan-2-carbonyl)-4-hydroxy-2-(4-methylphenyl)-1-(5-methyl-1,3,4-thiadiazol-2-yl)-2H-pyrrol-5-one] | > 300 |
| CSc1ccc(C2C(C(=O)c3ccco3)C(=O)C(=O)N2c2nnc(SC)s2)cc1 (stereo unspecified) [3-(furan-2-carbonyl)-4-hydroxy-2-(4-methylsulfanylphenyl)-1-(5-methylsulfanyl-1,3,4-thiadiazol-2-yl)-2H-pyrrol-5-one] | 16.4 |
| O=C1Nc2ccccc2C1=NNc1ccccc1 [3-(phenylhydrazo)-2-indolone] | 18.3 |

| Compound | EC50 [µM] |
| --- | --- |
| N#CC1C(=N)C2=C(N3CCCCC3)CCCC2C1(C#N)C#N (stereo unspecified) [3-Amino-4-piperidin-1-yl-5,6,7,7a-tetrahydro-indene-1,1,2-tricarbonitrile] | 77.1 |
| COc1ccc(N2C(=O)C(=Nc3ccccc3O)C(Cl)C2=O)cc1 (stereo unspecified) [3-Chloro-4-(2-hydroxy-phenylamino)-1-(4-methoxy-phenyl)-pyrrole-2,5-dione] | 24.5 |
| O=C1C(=Nc2ccccc2O)C(Cl)C(=O)N1c1ccccc1 (stereo unspecified) [3-Chloro-4-(2-hydroxy-phenylamino)-1-phenyl-pyrrole-2,5-dione] | 73 |
| O=c1c2ccccc2nc(N=NCc2ccc(O)cc2)n1O [3-Hydroxy-2-{N'-[1-(4-hydroxy-phenyl)-meth-(E)-ylidene]-hydrazino}-3H-quinazolin-4-one] | > 300 |
| Cc1cc(CN=Nc2ccc([N+](=O)[O-])cn2)c(C)n1-c1cccc(C(=O)O)c1 [3-[2,5-dimethyl-3-[[(5-nitro-2-pyridinyl)hydrazinylidene]methyl]-1-pyrrolyl]benzoic acid] | 37.7 |
| O=NCc1cccn1-c1cccc(C(=O)O)c1 [3-[2-(hydroximinomethyl)pyrrol-1-yl]benzoic acid] | > 300 |
| CCOC(=O)c1c2ccc(OCC(=O)NN=Cc3ccc(Cl)cc3)cc2n2ccccc12 [3-[2-[2-[(4-chlorophenyl)methylidene]hydrazinyl]-2-oxoethoxy]-10-pyrido[1,2-a]indolecarboxylic acid ethyl ester] | 160 |
| Cc1[nH]n(C(N)=S)c(=O)c1N=Nc1cccc(C(=O)O)c1 [3-[(1-carbamothioyl-3-methyl-5-oxo-4H-pyrazol-4-yl)diazenyl]benzoic acid] | 22.7 |
| O=[N+]([O-])c1cc([CH+][N-]n2c(O)csc2=S)ccc1Cl [3-[(4-chloranyl-3-nitro-phenyl)methylideneamino]-2-sulfanylidene-1,3-thiazolidin-4-one] | 15.7 |
| Oc1ccc(C=Nn2c(O)csc2=S)c(O)c1O [3-[[(E)-[2,3-bis(oxidanyl)-4-oxidanylidene-cyclohexa-2,5-dien-1-ylidene]methyl]amino]-2-sulfanylidene-1,3-thiazolidin-4-one] | 0.668 |
| N#CC1C(=N)Oc2ccc3ccc(O)cc3c2C1c1ccsc1 (stereo unspecified) [3-amino-9-hydroxy-1-(3-thienyl)-1H-benzo[f]chromene-2-carbonitrile] | 11 |
| CCCCOc1c(Br)cc(CN=O)cc1OCC [3-bromo-4-butoxy-5-ethoxy-benzaldoxime] | > 300 |
| COc1ccccc1N1C(=O)C(=Nc2ccccc2O)C(Cl)C1=O (stereo unspecified) [3-chloranyl-4-[(2-hydroxyphenyl)amino]-1-(2-methoxyphenyl)pyrrole-2,5-dione] | 8.19 |
| O=C1C=C(NNC(=O)c2sc3ccccc3c2Cl)CCC1 [3-chloranyl-N-[(3-oxidanylidenecyclohexylidene)amino]-1-benzothiophene-2-carboxamide] | 20.5 |
| CC(C)c1nnc(N2C(=O)C(=O)C(C(=O)c3cccs3)C2c2ccccc2)s1 (stereo unspecified) [3-hydroxy-1-(5-isopropyl-1,3,4-thiadiazol-2-yl)-5-phenyl-4-(2-thenoyl)-3-pyrrolin-2-one] | 4.38 |
| Cc1[nH]n(C(N)=S)c(=O)c1N=Nc1ccc(S(N)(=O)=O)cc1 [3-methyl-5-oxidanylidene-4-[(4-sulfamoylphenyl)diazenyl]-4H-pyrazole-1-carbothioamide] | 8.86 |
| O=C1CC(=O)c2c(O)cc(O)c(O)c2C1=O [4,5,7,8-tetrahydroxy-1,2-naphthoquinone] | 0.899 |
| COc1cc(C2C3=C(CCCC3=O)OC(=N)C2C#N)cc(OC)c1OC(=O)N1CCOCC1 (stereo unspecified) [4-(2-amino-3-cyano-5-oxo-5,6,7,8-tetrahydro-4H-chromen-4-yl)-2,6-dimethoxyphenyl morpholine-4-carboxylate] | > 300 |
| COc1cc(C2C3=C(CCCC3=O)OC(=N)C2C#N)ccc1OC(=O)N1CCOCC1 (stereo unspecified) [4-(2-amino-3-cyano-5-oxo-5,6,7,8-tetrahydro-4H-chromen-4-yl)-2-methoxyphenyl morpholine-4-carboxylate] | > 300 |
| N#CC1C(=N)OC2=C(C(=O)CCC2)C1c1ccc(OC(=O)N2CCOCC2)cc1 (stereo unspecified) [4-(2-amino-3-cyano-5-oxo-5,6,7,8-tetrahydro-4H-chromen-4-yl)phenyl morpholine-4-carboxylate] | > 300 |
